Laboratory results taken from US6504058B1 (priority 1997, dated 2003).

Legend:
[1] = system: Puccinia recondita; test: Test B: wheat leaf rust, preventive spray on wheat seedlings, disease rating; format: in vivo, Puccinia recondita (on wheat seedlings); conditions: 200 ppm test suspension sprayed to run-off (equivalent to 500 g/ha) on wheat seedlings; 100 = 100% disease control, 0 = no control; # = significant activity
Outline: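 Wheat seedlings were sprayed to run-off with 200 ppm suspensions (≈500 g/ha; 3% acetone, 250 ppm Trem 014) and inoculated with Puccinia recondita spores the next day. Plants were held 24 h saturated at 20 °C, then 6 days at 20 °C. Disease control was rated 0-100 relative to untreated controls.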

[2] = system: Pyricularia oryzae; format: in vivo, Pyricularia oryzae (on rice seedlings); conditions: 200 ppm test suspension sprayed to run-off (equivalent to 500 g/ha) on rice seedlings; 100 = 100% disease control, 0 = no control; # = significant activity
[3] = system: Phytophthora infestans; format: in vivo, Phytophthora infestans (on tomato seedlings); conditions: 200 ppm test suspension sprayed to run-off (equivalent to 500 g/ha) on tomato seedlings; 100 = 100% disease control, 0 = no control; # = significant activity
[4] = system: Botrytis cinerea; test: Test E: gray mold, preventive spray on cucumber seedlings, disease rating; format: in vivo, Botrytis cinerea (on cucumber seedlings); conditions: 200 ppm test suspension sprayed to run-off (equivalent to 500 g/ha) on cucumber seedlings; 100 = 100% disease control, 0 = no control; # = significant activity
Outline: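 Cucumber seedlings sprayed to run-off with 200 ppm suspension (equivalent to 500 g/ha), inoculated next day with B. cinerea spores. Kept 48 h saturated at 20 °C, then 5 days in growth chamber at 20 °C; disease control rated 0–100 relative to controls.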

[5] = system: Erysiphe graminis f. sp. tritici; test: Test A: wheat powdery mildew, preventive spray on wheat seedlings, disease rating; format: in vivo, Erysiphe graminis f. sp. tritici (on wheat seedlings); conditions: 200 ppm test suspension sprayed to run-off (equivalent to 500 g/ha) on wheat seedlings; 100 = 100% disease control, 0 = no control; # = significant activity
Outline: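 Compounds at 200 ppm (acetone 3%, 250 ppm Trem 014 in water; equivalent to 500 g/ha) sprayed to run-off on wheat seedlings, inoculated with spore dust the following day. Plants held at 20° C. for 7 days, then rated 0–100% disease control relative to untreated controls.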

SMILES | Test B disease control rating (wheat leaf rust) [1] | Test C disease control rating (rice blast) [2] | Test D disease control rating (potato and tomato late blight) [3] | Test E disease control rating (gray mold) [4] | Test A disease control rating (wheat powdery mildew) [5]
COc1cc(Br)ccc1C(C)NC(=O)C1(C)CC(C)(Cl)C1 (stereo not drawn) [compound 59] | 85# % | 100# (a rating of 100 indicates 100% disease control) | 23% | 0 (a rating of 0 indicates no disease control (relative to the controls)) | 0 (a rating of 0 indicates no disease control (relative to the controls))
COc1cc(Br)ccc1C(C)NC(=O)C1(C)CC(C)(Cl)C1 (stereo not drawn) [compound 60] | 0 (a rating of 0 indicates no disease control (relative to the controls)) | 100# (a rating of 100 indicates 100% disease control) | 23% | 0 (a rating of 0 indicates no disease control (relative to the controls)) | 0 (a rating of 0 indicates no disease control (relative to the controls))
CC(NC(=O)C1(C)CC(Cl)(CCl)C1)c1ccc(Br)cc1 (stereo not drawn) [compound 61] | 0 (a rating of 0 indicates no disease control (relative to the controls)) | 100# (a rating of 100 indicates 100% disease control) | 96# % | 0 (a rating of 0 indicates no disease control (relative to the controls)) | 0 (a rating of 0 indicates no disease control (relative to the controls))
CC(NC(=O)C1(C)CC(Cl)(CCl)C1)c1ccc(Br)cc1 (stereo not drawn) [compound 62] | 0 (a rating of 0 indicates no disease control (relative to the controls)) | 97# % | 84# % | 0 (a rating of 0 indicates no disease control (relative to the controls)) | 0 (a rating of 0 indicates no disease control (relative to the controls))
CC(NC(=O)C1(C)CC(Cl)(CCl)C1)c1ccc2ccccc2c1 (stereo not drawn) [compound 63] | 0 (a rating of 0 indicates no disease control (relative to the controls)) | 53% | 37% | 0 (a rating of 0 indicates no disease control (relative to the controls)) | 0 (a rating of 0 indicates no disease control (relative to the controls))
CC(NC(=O)C1(C)CC(Cl)(CCl)C1)c1ccc2ccccc2c1 (stereo not drawn) [compound 64] | 0 (a rating of 0 indicates no disease control (relative to the controls)) | 53% | 91# % | 0 (a rating of 0 indicates no disease control (relative to the controls)) | 0 (a rating of 0 indicates no disease control (relative to the controls))
CC(NC(=O)C1(C)CC(F)(F)C1)c1ccc(Br)cc1 (stereo not drawn) [compound 67] | 0 (a rating of 0 indicates no disease control (relative to the controls)) | 99# % | 43% | 19% | 63%
CC(NC(=O)C1(C)CC(C)(Br)C1)c1ccc(Cl)cc1Cl (stereo not drawn) [compound 68] | 0 (a rating of 0 indicates no disease control (relative to the controls)) | 97# % | 24% | 0 (a rating of 0 indicates no disease control (relative to the controls)) | 0 (a rating of 0 indicates no disease control (relative to the controls))
CC(NC(=O)C1(C)CC(C)(Br)C1)c1ccc(Cl)cc1Cl (stereo not drawn) [compound 69] | 0 (a rating of 0 indicates no disease control (relative to the controls)) | 100# (a rating of 100 indicates 100% disease control) | 24% | 0 (a rating of 0 indicates no disease control (relative to the controls)) | 0 (a rating of 0 indicates no disease control (relative to the controls))
COc1cc(Br)ccc1C(C)NC(=O)C1(C)CC(C)(F)C1 (stereo not drawn) [compound 70] | 0 (a rating of 0 indicates no disease control (relative to the controls)) | 97# % | 20% | 19% | 0 (a rating of 0 indicates no disease control (relative to the controls))
CC(NC(=O)C1(C)CC(C)(Cl)C1)c1ccc(Cl)cc1Cl (stereo not drawn) [compound 71] | 0 (a rating of 0 indicates no disease control (relative to the controls)) | 100# (a rating of 100 indicates 100% disease control) | 100# (a rating of 100 indicates 100% disease control) | 0 (a rating of 0 indicates no disease control (relative to the controls)) | 61%
CC(NC(=O)C1(C)CC(C)(Cl)C1)c1ccc(Cl)cc1Cl (stereo not drawn) [compound 72] | 0 (a rating of 0 indicates no disease control (relative to the controls)) | 99# % | 66% | 0 (a rating of 0 indicates no disease control (relative to the controls)) | 91# %
